Reference: US4710571A, “1H-imidazol-1-ethanol esters” (Gist-Brocades N.V., priority 1983, dated 1987)
Where a name gives a salt, the structure may show the parent alone.

Key:
[1] = test system: ear sebaceous glands; experiment: lipid (sebum) synthesis in ear sebaceous glands of androgen-stimulated female hamsters, ear biopsies incubated with radioactive acetate; assay type: in vivo, hamster; conditions: for lipid synthesis inhibition / inhibition in vivo at 100 µg/day: dose 100 μg per day; for lipid synthesis inhibition / inhibition in vivo at 100 µg/day / inhibition in vivo at 500 µg/day: androgen-stimulated female hamsters, percentages may rise over 100%; for inhibition in vivo at 500 µg/day: dose 500 μg per day
Description: The sebum synthesis inhibiting activities of 1H-imidazole-1-ethanol and the esters of formula I were established in a number of animal species and particularly in the hamster much research has been carried out. Androgens administered to female hamsters stimulate the sebum synthesis in ear sebaceous glands and the extent of sebum synthesis is determined by incubating ear biopsies with radioactive acetate (Hall D. W. R. et al, Hormonal Control of Hamster Ear Sebaceous Gland Lipogenesis, Arch. Dermatol Res., 275, 1 (1983)). The test was based on the conversion of the added radioactive acetate into lipids which after extraction with hexane can be determined in a scintillation counter. In the following Table, the inhibition percentages of a number of substances are shown and the percentages may rise over 100%. A very strong activity of a compound will inhibit both the activity stimulated by androgen and the basal sebum synthesis activity of the sebaceous gland.

[2] = penetration of the skin; assay type: in vivo, human; conditions: in humans
[3] = test system: sebum secretion; experiment: inhibition of sebum secretion in humans; assay type: in vivo, human
[4] = test system: lipid synthesis in other organs; experiment: lipid synthesis inhibition in organs other than the sebaceous glands; assay type: in vivo; conditions: animal tests
[5] = skin irritation; assay type: in vivo, human; conditions: in humans
[6] = test system: hormonal activity; experiment: hormonal activity in animal tests; assay type: in vivo

Row | Structure (SMILES) | inhibition in vivo at 100 µg/day ([1]; Mesocricetus auratus) [%] | further results
1 | O=C(OCCn1ccnc1)c1ccc(Cl)cc1Cl [2,4-Cl2 C6 H3, base] |  | lipid synthesis inhibition [1]: 60%
2 | O=C(O)/C=C\C(=O)O.O=C(OCCn1ccnc1)c1ccc(Cl)cc1Cl [2,4-Cl2 C6 H3, maleate, 2-(1H-imidazol-1-yl)-ethyl 2,4-dichlorobenzoate (Z)-2-butenedioate(1:1)] |  | lipid synthesis inhibition [1]: 37%
3 | O=C(OCCn1ccnc1)c1cccs1 [2-thiophene, 2-(1H-imidazol-1-yl)-ethyl 2-thiophenecarboxylate] | 89 | 
4 | O=C(OCCn1ccnc1)c1ccc(C(F)(F)F)cc1 [4-CF3 C6 H4] |  | inhibition in vivo at 500 µg/day ([1]; Mesocricetus auratus): 70%
5 | Cc1ccc(C(=O)OCCn2ccnc2)cc1 [4-CH3 C6 H4, base] | 91 | 
6 | Cc1ccc(C(=O)OCCn2ccnc2)cc1 [4-CH3 C6 H4, maleate] |  | inhibition in vivo at 500 µg/day ([1]; Mesocricetus auratus): 92%
7 | COc1ccc(C(=O)OCCn2ccnc2)cc1 [4-CH3 OC6 H4] | 83 | 
8 | O=C(OCCn1ccnc1)c1ccc(Cl)cc1 [4-ClC6 H4] |  | inhibition in vivo at 500 µg/day ([1]; Mesocricetus auratus): 49%
9 | O=C(OCCn1ccnc1)c1ccncc1 [4-pyridyl] | 44 | 
10 | CC(C)(C)c1ccc(C(=O)OCCn2ccnc2)cc1 [4-tBuC6 H4, HCl] |  | inhibition in vivo at 500 µg/day ([1]; Mesocricetus auratus): 81%
11 | CC(C)(C)c1ccc(C(=O)OCCn2ccnc2)cc1 [4-tBuC6 H4, base] | 67 | 
12 | CCCC(=O)OCCn1ccnc1 [(CH2)2 CH3] | 106 | 
13 | CC(C)(C)C(=O)OCCn1ccnc1 [(CH3)3 --C--] | 72 | 
14 | O=C(CCc1ccccc1)OCCn1ccnc1 [C6 H5 (CH2)2] | 76 | 
15 | O=C(C=Cc1ccccc1)OCCn1ccnc1 [C6 H5 --CH=CH] | 59 | 
16 | O=C(OCCn1ccnc1)c1ccccc1 [C6 H5, 2-(1H-imidazol-1-yl)-ethyl benzoate] | 82 | penetration of the skin [2]: good penetration of the skin; inhibition of the sebum secretion [3]: good inhibition of the sebum secretion; lipid synthesis inhibition in other organs [4]: no lipid synthesis inhibition in other organs; irritation [5]: little irriation; hormonal activity [6]: no lipid synthesis inhibition in other organs or hormonal activity were found
17 | CCCCCCCCCCCCCCCC(=O)OCCn1ccnc1 [CH3 (CH2)14 --, 2-(1H-imidazol-1-yl)-ethyl hexadecanoate ethanedioate (1:1)] | 44 | 
18 | CC(=O)OCCn1ccnc1 [CH3] | 82 | 
19 | OCCn1ccnc1 [imidazolethanol, 1H-imidazole-1-ethanol] |  | inhibition in vivo at 1000 µg/day ([1]; Mesocricetus auratus, read-out: lipid synthesis inhibition): 37%
20 | CC1=C(/C=C/C(C)=C/C=C/C(C)=C/C(=O)OCCn2ccnc2)C(C)(C)CCC1 [retinoic acid, 2-(1H-imidazol-1-yl)-ethyl retinoate ethanedioate (2:1)] | 39 | 
